Assay results taken from patent US5330973A, “Lipopeptide derivatives” (Merck & Co., Inc., priority 1990, dated 1994).

How the values were obtained:
C. tropicalis = test: Minimum fungicidal concentration, microbroth dilution assay in YNBD; assay type: cell-based; conditions: C. tropicalis MY 1012
Description: (§1) The compounds of the present invention are active against many fungi and particularly against Candida species. […] In carrying out the assay, Compound A-2a and A-3a were solubilized in 10% dimethyl sulfoxide (DMSO) and diluted to 2560 μg/ml. The compounds were then diluted to 256 μg/ml in YNBD. […] of the suspension was dispensed to the top row of a 96-well plate (each well containing 0.15 ml of YNDB) resulting in a drug concentration of 128 μg/ml. Two-fold dilutions were then made from the top row to obtain final drug concentrations ranging from 128 to 0.06 μg/ml. The yeast cultures, maintained on Sabouraud dextrose agar were transferred to YM broth (Difco) and incubated overnight at 35° C. with shaking (250 rpm). […] The microplates were incubated at 35° C. for 24 hours. The minimum inhibitory concentrations (MICs) were recorded as the lowest concentrations of drug showing no visible growth. After recording the MIC, the plates were shaken to resuspend the cells. Thereafter, […] samples from the wells in the 96-well microplate were transferred to a single well tray containing Sabouraud dextrose agar. The inoculated trays were incubated 24 hours at 28° C. and then read. […]

C. albicans = test: as above; assay type: cell-based
Description: as §1

C. parapsilosis = test: as above; assay type: cell-based; conditions: C. parapsilosis MY 1010
Description: as §1

Pneumocystis carinii = Pneumocystis carinii pneumonia in immunosuppressed rats, elimination of cysts; assay type: in vivo, Sprague-Dawley rats; conditions: I.P. twice daily for four days, lungs read by microscopic analysis of stained slides
Description: In a representative study, the effectiveness of Compound A-2a was determined. Sprague-Dawley rats (weighing approximately 250 grams) were immuno-suppressed with dexasone in the drinking water (2.0 mg/L) and maintained on a low protein diet for five weeds to induce the development of pneumocystis pneumonia from a latent infection. […] Six rats (weighing approximately 150 grams) were injected twice daily for four days intraperitoneally (I.P.) with Compound A-2a in 0.25 ml of vehicle (distilled water). A vehicle control was also carried out. All animals continued to receive dexasone in the drinking water and low protein diet during the treatment period. At the completion of the treatment, all animals were sacrificed, the lungs were removed and processed, and the extent of disease determined by microscopic analysis of stained slides.
In a similar experiment, the animals were sacrificed, the lungs removed and processed, and the extent of disease determined by microscopic analysis of stained slides.

In the case of “1-[4-hydroxy-N2-(10,12-dimethyl-1-oxotetradecyl)-ornithine]-4-[3-hydroxy-4' -O-phosphoryl-homotyrosine]-5-[3-hydroxyglutamine]echinocandin B [Compound A-2a]”, the “Minimum Fungicidal Concentration” value (C. tropicalis) is reported as 0.5 µg/mL, the “Minimum Fungicidal Concentration” value (C. albicans; C. albicans MY 1028) is reported as 1 µg/mL and the “Minimum Fungicidal Concentration” value (C. albicans; C. albicans MY 1055) is reported as 1 µg/mL. For the same substance, the “Minimum Fungicidal Concentration” value (C. albicans; C. albicans MY 1208) was 1 µg/mL, the “Minimum Fungicidal Concentration” value (C. parapsilosis) was 16 µg/mL and the “ED90 for eliminating P. carinii cysts” value (Pneumocystis carinii) was “approximately 2 mg/kg”.

With “1-[N2-(10,12-dimethyl-1-oxotetradecyl)-ornithine]-4-[3,4-dihydroxy-4'-O-pho sphoryl-homotyrosine]-5-[3-hydroxyglutamine] echinocandin B [Compound A-3a]” the “Minimum Fungicidal Concentration” value (C. tropicalis) was 1 µg/mL, the “Minimum Fungicidal Concentration” value (C. albicans; C. albicans MY 1028) was 4 µg/mL and the “Minimum Fungicidal Concentration” value (C. albicans; C. albicans MY 1055) was 2 µg/mL. For the same substance, the “Minimum Fungicidal Concentration” value (C. albicans; C. albicans MY 1208) was 4 µg/mL, the “Minimum Fungicidal Concentration” value (C. parapsilosis) was > 128 µg/mL and the “ED90 for eliminating P. carinii cysts” value (Pneumocystis carinii) was “approximately 2.5 mg/kg”.
